The structures appear in SMILES notation.

As for `Cc1cccc(S(=O)(=O)NC(C)C)c1NC(=O)c1cc(C(F)(F)F)nn1-c1ncccc1Cl` [Compound B3, 1-(3-Chloro-2-pyridinyl)-N-[2-methyl-6-[[(1-methylethyl)amino]sulfonyl]phenyl]-3-(trifluoromethyl)-1H-pyrazole-5-carboxamide], the melting point lay in the range of 69 to 73 °C.

For the origin of these results see patent US7288554B2, “Ortho-substituted aryl amides for controlling invertebrate pests” (E.I. du Pont de Nemours and Company, priority 2001, dated 2007).
